Experimental data taken from publication doi:10.1101/854513v2 (biorxiv, 2020).
Residue numbers refer to the chain shown, from its start. Read-outs that look alike come from different tables or passages of the source.

Columns and labels:
hM3Dq [1] = biological target: T1, hM3Dq (Homo sapiens, UniProt P20309, A239G/Y149C); test: cell-based
hM3 = hM3 (Homo sapiens, UniProt P20309); test: biochemical; format: binding
hM4Di [2] = biological target: T2, hM4Di (Homo sapiens, UniProt P08173, A203G/Y113C); test: [3H]QNB competition binding
T2 sequence (P08173 1-479 Y113C/A203G): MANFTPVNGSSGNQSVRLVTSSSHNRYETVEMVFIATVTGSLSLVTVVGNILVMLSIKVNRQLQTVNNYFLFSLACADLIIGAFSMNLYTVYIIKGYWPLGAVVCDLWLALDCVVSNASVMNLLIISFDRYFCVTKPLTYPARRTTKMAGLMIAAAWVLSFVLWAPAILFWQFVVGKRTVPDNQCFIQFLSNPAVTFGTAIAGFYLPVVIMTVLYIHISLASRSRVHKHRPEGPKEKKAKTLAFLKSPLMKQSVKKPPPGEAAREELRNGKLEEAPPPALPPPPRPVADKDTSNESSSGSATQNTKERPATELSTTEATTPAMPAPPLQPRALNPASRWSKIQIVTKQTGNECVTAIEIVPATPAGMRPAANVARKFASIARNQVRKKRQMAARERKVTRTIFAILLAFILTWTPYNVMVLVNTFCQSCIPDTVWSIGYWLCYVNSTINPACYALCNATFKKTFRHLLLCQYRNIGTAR

hM4Di [3] = biological target: T2, hM4Di; test: BRET G protein dissociation; format: cell-based
hM4 = biological target: T3, hM4 (Homo sapiens, UniProt P08173); test: [3H]QNB competition binding
T3 sequence (P08173 1-479): T2 sequence (P08173 1-479 Y113C/A203G) with C113Y, G203A

hM3Dq [4] = biological target: T1, hM3Dq; test: biochemical; format: binding
hM1 = biological target: T4, hM1 (Homo sapiens, UniProt P11229); test: radioligand competition binding
T4 sequence (P11229 1-460): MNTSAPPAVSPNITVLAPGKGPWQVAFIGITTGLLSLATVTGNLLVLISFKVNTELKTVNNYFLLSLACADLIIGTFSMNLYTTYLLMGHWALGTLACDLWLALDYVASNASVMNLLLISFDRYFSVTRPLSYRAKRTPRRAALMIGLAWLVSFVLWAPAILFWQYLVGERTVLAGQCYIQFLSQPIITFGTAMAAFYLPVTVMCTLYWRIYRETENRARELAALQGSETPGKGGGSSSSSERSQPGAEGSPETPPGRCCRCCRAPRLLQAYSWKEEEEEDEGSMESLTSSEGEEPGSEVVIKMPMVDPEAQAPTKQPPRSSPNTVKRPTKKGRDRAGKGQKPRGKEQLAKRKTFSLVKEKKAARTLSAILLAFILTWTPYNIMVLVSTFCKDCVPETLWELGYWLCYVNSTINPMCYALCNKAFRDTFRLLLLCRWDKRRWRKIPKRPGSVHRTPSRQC

hM5 = biological target: T5, hM5 (Homo sapiens, UniProt P08912); test: radioligand competition binding
T5 sequence (P08912 1-532): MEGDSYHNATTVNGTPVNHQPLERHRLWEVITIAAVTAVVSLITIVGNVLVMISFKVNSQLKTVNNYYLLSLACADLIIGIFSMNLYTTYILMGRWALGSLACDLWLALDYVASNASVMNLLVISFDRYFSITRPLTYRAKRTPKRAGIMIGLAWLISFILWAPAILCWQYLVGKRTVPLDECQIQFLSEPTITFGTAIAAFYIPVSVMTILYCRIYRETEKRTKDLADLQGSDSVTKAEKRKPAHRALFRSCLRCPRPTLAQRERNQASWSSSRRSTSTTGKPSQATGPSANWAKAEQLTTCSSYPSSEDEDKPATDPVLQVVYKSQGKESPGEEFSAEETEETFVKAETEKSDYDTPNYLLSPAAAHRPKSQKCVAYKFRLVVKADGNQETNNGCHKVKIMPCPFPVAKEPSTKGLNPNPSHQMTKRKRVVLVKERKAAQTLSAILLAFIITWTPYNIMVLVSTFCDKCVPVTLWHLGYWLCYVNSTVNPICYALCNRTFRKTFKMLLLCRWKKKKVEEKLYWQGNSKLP

T1 sequence (P20309 whole entry Y149C/A239G): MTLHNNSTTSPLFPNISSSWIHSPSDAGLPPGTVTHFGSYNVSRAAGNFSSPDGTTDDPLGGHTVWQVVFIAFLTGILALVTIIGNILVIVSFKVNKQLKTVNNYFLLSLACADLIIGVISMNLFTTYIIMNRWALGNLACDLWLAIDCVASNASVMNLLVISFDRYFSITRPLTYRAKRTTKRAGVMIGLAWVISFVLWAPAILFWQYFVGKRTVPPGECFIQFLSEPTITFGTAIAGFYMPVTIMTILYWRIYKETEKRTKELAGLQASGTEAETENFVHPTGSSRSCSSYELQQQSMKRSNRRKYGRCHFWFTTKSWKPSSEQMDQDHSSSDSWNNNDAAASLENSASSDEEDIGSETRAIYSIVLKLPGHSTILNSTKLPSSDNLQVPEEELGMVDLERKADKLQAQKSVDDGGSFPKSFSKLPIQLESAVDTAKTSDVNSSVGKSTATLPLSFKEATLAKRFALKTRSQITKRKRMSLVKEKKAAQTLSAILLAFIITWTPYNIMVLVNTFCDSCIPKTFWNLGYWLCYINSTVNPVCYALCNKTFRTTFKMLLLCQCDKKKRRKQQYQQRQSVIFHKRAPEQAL
hM3, sequence (P20309 whole entry): as the sequence (P20309 whole entry Y149C/A239G) above, with C149Y, G239A counted along it

C[N+]1([O-])CCN(C2=Nc3cc(Cl)ccc3Nc3ccccc32)CC1 [CNO] was tested. Which EC50 (hM3Dq [1]) did it give?
Its EC50 is 15 nM.

And the Ki (hM3)?
The Ki was 2600 nM.

And the Ki (hM4Di [2])?
The Ki was 360 nM.

What about the EC50 (hM4Di [3]) of the same compound?
The EC50 was 7.3 nM.

And the Ki (hM4)?
Its Ki is 3700 nM.

And the Ki (hM3Dq [4])?
Its Ki is 680 nM.

How did the EC50 (hM3Dq [1]) turn out when CN1CCN(C2=Nc3ccccc3Nc3ccccc32)CC1 [DCZ, 11-(4-methyl-1-piperazinyl)-5H-dibenzo(b,e)(1,4)diazepine] was run?
Its EC50 is 0.13 nM.

And the Ki (hM1)?
The Ki was 83 nM.

And the Ki (hM3)?
Its Ki is 230 nM.

And the Ki (hM5)?
Its Ki is 55 nM.

And the Ki (hM4Di [2])?
Its Ki is 4.2 nM.

And the EC50 (hM4Di [3])?
Its EC50 is 0.081 nM.

And the Ki (hM4)?
The Ki was 210 nM.

And the Ki (hM3Dq [4])?
The Ki was 6.3 nM.

c1ccc2c(c1)N=C(N1CCNCC1)c1ccccc1N2 [C21] was tested. Which EC50 (hM3Dq [1]) did it give?
The EC50 was 5.2 nM.

And the Ki (hM3; HEK293T, [3H]QNB […])?
Its Ki is 270 nM.

What about the EC50 (hM4Di [3]) of the same compound?
The EC50 was 2.6 nM.

What about the Ki (hM3Dq [4]) of the same compound?
The Ki was 850 nM.
